Assay results from patent US12336981B2, “Compounds and compositions for the inhibition of NAMPT” (Valo Health, Inc., priority 2010, dated 2025).
Read-outs that look alike come from different tables or passages of the source.

Key:
A2780 cells = test: In-vitro cell proliferation assay (SRB), A2780 cells; type: cell-based; details: Homo sapiens, A2780, 72 h
How it was run: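 Read-out is SRB absorbance at 570 nm on TCA-fixed cells after 72 hours of compound treatment at 37° C. in 5% CO2. Background from a media-only plate is subtracted, and % inhibition is interpolated between two tested concentrations.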

NAMPT = target: T1, NAMPT (Homo sapiens, UniProt P43490); test: Biochemical inhibition assay: NAMPT enzymatic reaction, NMN quantified by mass spectrometry
T1 construct: His tag; host or cells: E. coli
How it was run: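 Inhibition of E. coli-expressed His-tagged human NAMPT, measured as NMN formation by mass spectrometry after a 30 min room-temperature reaction containing 1 μM NAM, 100 μM PRPP and 2.5 mM ATP.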

[1] = A2780 cells, 72 hours, SRB, read-out: A2780 IC50
[2] = NAMPT enzymatic reaction, read-out: Biochem IC50
[3] = NAMPT enzymatic assay, read-out: Biochem IC50
[4] = A2780 cells, 72 hours, SRB assay, read-out: A2780 IC50

T1 sequence (P43490 whole entry): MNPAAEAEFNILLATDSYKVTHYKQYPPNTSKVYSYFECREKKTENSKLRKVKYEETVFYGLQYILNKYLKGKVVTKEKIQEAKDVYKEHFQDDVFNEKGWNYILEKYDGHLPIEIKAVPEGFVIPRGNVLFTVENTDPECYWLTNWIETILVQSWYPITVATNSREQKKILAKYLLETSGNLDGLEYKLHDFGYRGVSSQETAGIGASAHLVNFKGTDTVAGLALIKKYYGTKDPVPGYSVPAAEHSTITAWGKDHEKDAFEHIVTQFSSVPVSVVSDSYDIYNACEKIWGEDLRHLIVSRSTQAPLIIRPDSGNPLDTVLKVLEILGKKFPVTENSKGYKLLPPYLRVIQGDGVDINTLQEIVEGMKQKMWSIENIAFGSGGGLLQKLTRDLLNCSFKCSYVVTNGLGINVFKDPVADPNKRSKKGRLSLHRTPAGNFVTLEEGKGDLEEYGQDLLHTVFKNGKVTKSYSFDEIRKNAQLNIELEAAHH

SMILES	IC50 (A2780 cells; [1])	IC50 (NAMPT; [2])	IC50 (NAMPT; [3])	further results
CCCCc1ccc(S(=O)(=O)c2ccc(CNC(=O)c3cc4ccncc4s3)cc2)cc1	0.026 µM	0.0029 µM		
COc1cc(C)cc(S(=O)(=O)c2ccc(CNC(=O)c3cc4ccncc4o3)cc2)c1OC	0.007 µM	0.0152 µM		
O=C(NCc1ccc(S(=O)(=O)c2cccc(OC(F)(F)F)c2)cc1)c1cc2ccncc2o1	0.0067 µM		0.0034 µM	
O=C(NCc1ccc(S(=O)(=O)c2ccc(N3CCCC3)cc2)cc1)c1ccc2nccn2c1	0.0014 µM		0.003 µM	
COc1cncc(S(=O)(=O)c2ccc(CNC(=O)c3cc4ccncc4s3)cc2)c1 [N-{[4-(5-methoxypyridine-3-sulfonyl)phenyl]methyl}thieno[2,3-c]pyridine-2-carboxamide]	0.0016 µM		0.009 µM	
O=C(NCc1ccc(S(=O)(=O)c2cccc3c2Oc2ccccc2S3)cc1)c1ccc2nccn2c1 [N-{[4-(phenoxathiine-4-sulfonyl)phenyl]methyl}imidazo[1,2-a]pyridine-6-carboxamide]	0.00218 µM		0.00215 µM	
O=C(NCc1ccc(S(=O)(=O)c2cnn(-c3cccc(Cl)c3)c2)cc1)c1cc2cnccc2[nH]1 [N-({4-[1-(3-chlorophenyl)-1H-pyrazole-4-sulfonyl]phenyl}methyl)-1H-pyrrolo[3,2-c]pyridine-2-carboxamide]	0.0131 µM		0.0169 µM	
O=C(NCc1ccc(S(=O)(=O)c2cnc3ccccc3c2)cc1)c1cnc2[nH]ncc2c1 [N-{[4-(quinoline-3-sulfonyl)phenyl]methyl}-1H-pyrazolo[3,4-b]pyridine-5-carboxamide]	0.0044 µM		0.0052 µM	
CC(=O)c1ccccc1S(=O)(=O)c1ccc(CNC(=O)c2cc3ccncc3s2)cc1 [N-({4-[(2-acetylbenzene)sulfonyl]phenyl}methyl)thieno[2,3-c]pyridine-2-carboxamide]		0.001 µM		IC50 (A2780 cells; [4]): 0.001 µM
Cc1c(F)cccc1S(=O)(=O)c1ccc(CNC(=O)c2cnc3[nH]ncc3c2)cc1 [N-({4-[(3-fluoro-2-methylbenzene)sulfonyl]phenyl}methyl)-1H-pyrazolo[3,4-b]pyridine-5-carboxamide]	0.0718 µM	0.0469 µM		
O=C(NCc1ccc(S(=O)(=O)Nc2ccc3cn[nH]c3c2)cc1)c1cc2cnccc2[nH]1 [N-({4-[(1H-indazol-6-yl)sulfamoyl]phenyl}methyl)-1H-pyrrolo[3,2-c]pyridine-2-carboxamide]		0.135 µM		IC50 (A2780 cells; [4]): 5.44 µM
COc1ccc(OC(F)(F)F)cc1S(=O)(=O)c1ccc(CNC(=O)c2cnc3nccn3c2)cc1	0.0058 µM		< 0.00065 µM	
O=C(NCc1ccc(S(=O)(=O)c2ccccc2CN2CCOCC2)cc1)c1ccc2nccn2c1 [N-[(4-{[2-(morpholin-4-ylmethyl)benzene]sulfonyl}phenyl)methyl]imidazo[1,2-a]pyridine-6-carboxamide]	0.0342 µM		0.136 µM	
CCCCOc1ccc(S(=O)(=O)c2ccc(CNC(=O)c3cnc4[nH]ncc4c3)cc2)cc1 [N-({4-[(4-butoxybenzene)sulfonyl]phenyl}methyl)-1H-pyrazolo[3,4-b]pyridine-5-carboxamide]	0.0225 µM	0.0275 µM		
O=C(NCc1ccc(S(=O)(=O)c2cccc(N3CCOCC3)c2)cc1)c1cc2ccncc2o1	0.0056 µM		0.005 µM	
Cc1c(Cl)cccc1S(=O)(=O)c1ccc(CNC(=O)c2cc3ccncc3s2)cc1				IC50 (A2780 cells; read-out: A2780 IC50 uM): 0.0071 µM; IC50 (NAMPT; Biochem IC50 uM): 0.0572 µM
O=C(NCc1ccc(S(=O)(=O)c2ccc(C(F)(F)F)c(Cl)c2)cc1)c1cnc2[nH]ncc2c1 [N-[(4-{[3-chloro-4-(trifluoromethyl)benzene]sulfonyl}phenyl)methyl]-1H-pyrazolo[3,4-b]pyridine-5-carboxamide]	0.0264 µM		0.0843 µM	
O=C(NCc1ccc(S(=O)(=O)c2ccc(F)c(C(F)(F)F)c2)cc1)c1cc2ccncc2s1	0.0028 µM		0.004 µM	
O=C(NCc1ccc(S(=O)(=O)CCCCc2ccccc2)cc1)c1cc2cnccc2[nH]1 [N-({4-[(4-phenylbutane)sulfonyl]phenyl}methyl)-1H-pyrrolo[3,2-c]pyridine-2-carboxamide]	0.0715 µM	0.216 µM		
COc1cc(Cl)ccc1S(=O)(=O)c1ccc(CNC(=O)c2ccc3nccn3c2)cc1 [N-({4-[(4-chloro-2-methoxybenzene)sulfonyl]phenyl}methyl)imidazo[1,2-a]pyridine-6-carboxamide]	0.0126 µM	0.0187 µM		
CCCCOc1ccc(S(=O)(=O)c2ccc(CNC(=O)c3cc4cnccc4[nH]3)cc2)c(C)c1	0.0625 µM	0.08 µM		
O=C(NCc1ccc(S(=O)(=O)c2cc(C(F)(F)F)ccn2)cc1)c1cc2ccncc2o1 [N-({4-[4-(trifluoromethyl)pyridine-2-sulfonyl]phenyl}methyl)furo[2,3-c]pyridine-2-carboxamide]	0.0061 µM		0.0139 µM	

SMILES	IC50 (A2780 cells; [1])	IC50 (NAMPT; [2])	IC50 (NAMPT; [3])	further results
Cc1ncccc1S(=O)(=O)c1ccc(CNC(=O)c2cnc3[nH]ncc3c2)cc1 [N-{[4-(2-methylpyridine-3-sulfonyl)phenyl]methyl}-1H-pyrazolo[3,4-b]pyridine-5-carboxamide]	0.136 µM		0.105 µM	
COc1ccc(F)c(S(=O)(=O)c2ccc(CNC(=O)c3cnc4nccn4c3)cc2)c1	0.0629 µM	0.0104 µM		
Cc1ccc(Cl)c(S(=O)(=O)c2ccc(CNC(=O)c3cc4cnccc4[nH]3)cc2)c1F	0.0071 µM		0.0065 µM	
O=C(NCc1ccc(S(=O)(=O)c2cccc(C(F)(F)F)c2)cc1)c1cc2cnccc2[nH]1 [N-[(4-{[3-(trifluoromethyl)benzene]sulfonyl}phenyl)methyl]-1H-pyrrolo[3,2-c]pyridine-2-carboxamide]		0.009 µM		IC50 (A2780 cells; [4]): 0.003 µM
Cc1cc(C)n(-c2cccc(S(=O)(=O)c3ccc(CNC(=O)c4cc5cc(O)ccc5[nH]4)cc3)c2)n1	0.1 to 1 µM		0.1 to 1 µM	
Cc1ccc(S(=O)(=O)c2ccc(CNC(=O)c3cc4cnccc4[nH]3)cc2)cc1F [N-({4-[(3-fluoro-4-methylbenzene)sulfonyl]phenyl}methyl)-1H-pyrrolo[3,2-c]pyridine-2-carboxamide]		0.008 µM		IC50 (A2780 cells; [4]): 0.006 µM
O=C(NCc1ccc(S(=O)(=O)c2ccc(N3CCCC3)cc2)cc1)c1ccc2cn[nH]c2n1	0.0045 µM		0.006 µM	
O=C(NCc1ccc(S(=O)(=O)c2ccc(N3CCOCC3)cc2)cc1)c1cc2ccncc2o1	0.0025 µM		0.0046 µM	
O=C(NCc1ccc(S(=O)(=O)c2cccc(C(F)(F)F)c2)cc1)c1cc2ccncc2o1	0.0048 µM		0.0054 µM	
COc1cc(C)cc(OC)c1S(=O)(=O)c1ccc(CNC(=O)c2cc3cnccc3[nH]2)cc1 [N-({4-[(2,6-dimethoxy-4-methylbenzene)sulfonyl]phenyl}methyl)-1H-pyrrolo[3,2-c]pyridine-2-carboxamide]		0.016 µM		IC50 (A2780 cells; [4]): 0.01 µM
Cc1ccc(S(=O)(=O)c2ccc(CNC(=O)c3cc4ccncc4o3)cc2)c(C)c1	0.024 µM	0.0218 µM		
Cc1nc(C)c(S(=O)(=O)c2ccc(CNC(=O)c3cnc4nccn4c3)cc2)s1 [N-{[4-(dimethyl-1,3-thiazole-5-sulfonyl)phenyl]methyl}imidazo[1,2-a]pyrimidine-6-carboxamide]	0.0495 µM		0.0037 µM	
COc1ccc(S(=O)(=O)c2ccc(CNC(=O)c3ccc4nccn4c3)cc2)nc1 [N-{[4-(5-methoxypyridine-2-sulfonyl)phenyl]methyl}imidazo[1,2-a]pyridine-6-carboxamide]	0.0173 µM		0.0229 µM	
O=C(NCc1ccc(S(=O)(=O)c2ccccc2)cc1)c1ccc2scnc2c1 [N-(4-(phenylsulfonyl)benzyl)benzo[d]thiazole-5-carboxamide]		0.047 µM		IC50 (A2780 cells; [4]): 3.87 µM
CN(C)c1ccc(S(=O)(=O)c2ccc(CNC(=O)c3cnc4[nH]ncc4c3)cc2)cn1 [N-({4-[6-(dimethylamino)pyridine-3-sulfonyl]phenyl}methyl)-1H-pyrazolo[3,4-b]pyridine-5-carboxamide]	0.0033 µM		0.0305 µM	
Cn1ncc2c(S(=O)(=O)c3ccc(CNC(=O)c4ccc5ncsc5c4)cc3)cccc21 [N-{[4-(1-methyl-1H-indazole-4-sulfonyl)phenyl]methyl}-1,3-benzothiazole-6-carboxamide]	1 to 10 µM		0.0098 µM	
O=C(NCc1ccc(S(=O)(=O)c2ccccc2)cc1)c1n[nH]c2ncccc12 [N-{[4-(benzenesulfonyl)phenyl]methyl}-1H-pyrazolo[3,4-b]pyridine-3-carboxamide]		1.27 µM		IC50 (A2780 cells; [4]): > 10 µM
O=C(NCc1ccc(S(=O)(=O)c2csc(-c3cccc(F)c3)n2)cc1)c1cc2cnccc2[nH]1 [N-({4-[2-(3-fluorophenyl)-1,3-thiazole-4-sulfonyl]phenyl}methyl)-1H-pyrrolo[3,2-c]pyridine-2-carboxamide]	0.0232 µM		0.0192 µM	
Cc1c(Cl)cccc1S(=O)(=O)c1ccc(CNC(=O)c2cnc3[nH]ncc3c2)cc1 [N-({4-[(3-chloro-2-methylbenzene)sulfonyl]phenyl}methyl)-1H-pyrazolo[3,4-b]pyridine-5-carboxamide]	0.0161 µM	0.0369 µM		
COc1ccc(S(=O)(=O)c2ccc(CNC(=O)c3cnc4[nH]ncc4c3)cc2)cc1Cl	0.0036 µM	0.004 µM		
O=C(NCc1ccc(S(=O)(=O)Nc2ccccc2CCO)cc1)c1cc2cnccc2[nH]1 [N-[(4-{[2-(2-hydroxyethyl)phenyl]sulfamoyl}phenyl)methyl]-1H-pyrrolo[3,2-c]pyridine-2-carboxamide]	0.0199 µM		0.0188 µM	
